The results in this text go back to the supplement of paper PMC10307832.

Common to all, as to experiment: relative viability (nuclei count vs DMSO), 5 days (fraction); higher = more cells survive
Compound in experiment [1]: C1CNCCC1C2=CC(=NN2)C3=CC=NC=C3 + CS(=O)(=O)CCNCc1ccc(-c2ccc3ncnc(Nc4ccc(OCc5cccc(F)c5)c(Cl)c4)c3c2)o1 [Lapatinib] (partner 2 µM)
The method, boiled down: (§1)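 For relative viability, nuclei counts in treated wells were divided by those in vehicle wells. Lung cancer cell lines had been pin-tool dosed in 1536-well plates the day after seeding and cultured for 5 days, then fixed and stained in one step (final 0.05% Triton X-100, 1% formaldehyde, 1 ug/ml Hoechst) and imaged at 4×. Doses were one drug alone or a fixed anchor-drug dose plus five library-drug doses (not always all listed) in √10 steps, and values are duplicate-plate medians.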

Compound in experiment [2]: C1CNCCC1C2=CC(=NN2)C3=CC=NC=C3 + Nc1nc2[nH]cc(CCc3ccc(C(=O)N[C@@H](CCC(=O)O)C(=O)O)cc3)c2c(=O)[nH]1 [Pemetrexed] (partner 0.2 µM)
The method, boiled down: as §1

Compound in experiment [3]: C[C@@H](N)c1ccc(C(=O)Nc2ccnc3[nH]ccc23)cc1 + CC(=O)Nc1cccc(-n2c(=O)n(C3CC3)c(=O)c3c(Nc4ccc(I)cc4F)n(C)c(=O)c(C)c32)c1 [Trametinib] (partner 0.02 µM)
The method, boiled down:
as §1

Compound in the experiment “Tanzisertib + Tozasertib”: O[C@H]1CC[C@H](Nc2ncc3nc(Nc4c(F)cc(F)cc4F)n([C@H]4CCOC4)c3n2)CC1 [Tanzisertib] + Cc1cc(Nc2cc(N3CCN(C)CC3)nc(Sc3ccc(NC(=O)C4CC4)cc3)n2)n[nH]1 [Tozasertib] (partner 0.1 µM)
The method, boiled down: as §1

Consider UMC-11, for which the relative viability in experiment [1] (first compound 0.08 µM) is 0.73; in experiment [1] (first compound 0.8 µM), 1.23; in experiment [1] (first compound 2.53 µM), 1.05; in experiment [1] (first compound 8 µM) it was 1.04; in experiment [2] (first compound 0.08 µM) it was 0.653; in experiment [2] (first compound 0.8 µM) it was 0.9. The relative viability is 0.874 in experiment [2] (first compound 2.53 µM); 0.811 in experiment [2] (first compound 8 µM); 0.867 in experiment [3] (first compound 0.04 µM); 0.767 in experiment [3] (first compound 0.1265 µM); 0.849 in experiment [3] (first compound 0.4 µM); 0.184 in experiment [3] (first compound 1.265 µM). For the same cell line, the relative viability in experiment [3] (first compound 4 µM) is 0.525; in the experiment with Tanzisertib + Tozasertib (first compound 0.08 µM), 0.208; with Tanzisertib + Tozasertib (first compound 0.253 µM) it was 0.191; in the experiment with Tanzisertib + Tozasertib (first compound 0.8 µM), 0.212; with Tanzisertib + Tozasertib (first compound 2.53 µM), 0.215; in the experiment with Tanzisertib + Tozasertib (first compound 8 µM) it was 0.209.
